Experimental data: paper PMC8116058, “De novo macrocyclic peptides dissect energy coupling of a heterodimeric ABC transporter by multimode allosteric inhibition” (eLife, 2021)
Positions of bridges follow the written chain, without caps; N, C: chain ends. Non-standard residues stand in square brackets, D forms with d. Residues, ends and D or L forms follow the SMILES beside them. *: point of attachment. 5FAM = O=C1OC2(c3ccc(O)cc3Oc3cc(O)ccc32)c2ccc(C(=O)*)cc21; βAla = NCCC(=O)O

Assays:
[1] = test system: wild-type TmrAB in liposomes; assay: Single-liposome flow cytometry transport assay; type: biochemical, Thermus thermophilus; settings: for Peptide transport in two successive IF-to-OF cycles: 5 min 45°C / 60 min 4°C, repeated; for Transported C4^ATTO655, Peptides/liposome: TmrAB 0.4 µM, ATP 3 mM, ATP without CP 84.57, ADP 3.52; for Transported C4^ATTO655, Peptides/liposome / Peptides/liposome, time course / Mean fluorescence intensity * 10^3, time course: C4^ATTO655 1 µM; for Peptides/liposome, two consecutive transport cycles: ADP background corrected; for Peptides/liposome, time course: corrected by ADP background
Experimental: To investigate whether an IF-to-OF transition and conformational arrest by CP13^F or CP14^F can still result in a productive substrate translocation, we followed peptide transport by wild-type TmrAB by single liposome-based flow cytometry (Figure 6A). […] CPs block multiple-turnover transport monitored by quantitative flow cytometry. (A) Single turnover by IF-to-OF switch monitored by single-liposome flow cytometry. […] Transport reactions were stopped by the addition of EDTA (10 mM). 100,000 proteoliposomes were analyzed by flow cytometry monitoring fluorescein and ATTO655 intensities. […] (C, D) Slowdown of multiple-turnover substrate transport. […] Transported peptides per liposomes were evaluated and corrected by ADP background levels as described in (B). Transport kinetics were fitted monoexponentially. […] (E) Two consecutive transport cycles. […] Transported peptides per liposome were evaluated as described in (B) and corrected by background levels in the presence of ADP. […] Figure 6-source data 1. Source data for Figure 6. Figure 6-figure supplement 1. Linear regression of quantitative flow cytometry analysis. (A) Gating strategy. Liposomes were selected according to side and forward scatter areas. Single liposomes were gated based on the height of forward scatter correlated to the area of forward scatter. […] Detergent was removed, and liposomes were extensively washed by centrifugation. […] Equal concentrations of fluorescein served as loading control (right). (C) Linear regression. […] Mean values ± SD (n = 3) are shown. Figure 6-figure supplement 1-source data 1. Source Data for Figure 6-figure supplement 1. [drawing 5] […] To confirm the conformational arrest of wild-type TmrAB by CP13^F and the slow turnover in the presence of CP14^F, we examined two successive cycles of conformational transitions by flow cytometry. […] Both steps were repeated to yield two consecutive cycles of conformational transitions. […] Taken together, the macrocyclic peptides CP13 and CP14 stabilize a pre-hydrolysis state, thus allowing a single-turnover translocation along the IF-to-OF switch. […] Transport reactions were stopped by adding EDTA (10 mM). […] For regression analysis, liposomes were loaded with increasing amounts of peptides to convert the fluorescence intensities into the number of peptides per liposome ([Stefan et al., 2020]). […] Equal amounts of carboxyfluorescein (Sigma-Aldrich) served as loading control. Detergent was removed by adding SM-2 Bio-beads (Bio-Rad) as detailed above. Liposomes were harvested for 30 min at 270,000 g and washed three times by centrifugation. Generally, 20,000-100,000 proteoliposomes were selected according to sideward and forward scatter areas. Single events were selected based on the height of forward scatter plotted against the area of forward scatter. […] Data represent mean ± SD from three experiments.

[2] = test system: TmrA^EQB; assay: Nucleotide occlusion, catalytically reduced variant; type: biochemical, Thermus thermophilus; settings: CP^F 4 µM; 5 min 45°C
Experimental: Figure 5. […] (A, B) CP6^F (A) or CP13^F (B, 50 nM each) were incubated with increasing concentrations of detergent-solubilized inward-facing TmrAB (in the absence of Mg-ATP) or outward-facing TmrA^EQB, which was trapped with Mg-ATP (1 mM) for 5 min at 45°C as described ([Hofmann et al., 2019]; [Stefan et al., 2020]). Immediately after, the fluorescence anisotropy was assayed at λex/em = 485/520 nm. The difference in fluorescence polarization was normalized to free and fully bound CP^F. Data were fitted by a one-site binding model. […] TmrAB (2 µM each) were mixed with CP^Fs (4 µM), ATP (1 mM, traced with [α^32P]-ATP), and MgCl2 (5 mM) for 5 min at 4°C or 45°C. Cold ATP (10 mM) was added, and freely exchangeable nucleotides were removed by rapid gel filtration. Occluded nucleotides were analyzed by thin layer chromatography and autoradiography. Representative radiograms for independent triplicates are shown. (D) Stably occluded nucleotides, [α^32P]-ATP and [α^32P]-ADP, were quantified by autoradiography. Data were normalized to the vanadate-trapped state. In (A, B, D), mean values ± SD (n = 3) are shown. Figure 5—source data 1. Source Data for Figure 5. Figure 5—figure supplement 1. […] (A) CP^Fs (50 nM each) were incubated with increasing concentrations of detergent-solubilized IF TmrAB in the inward-facing (IF) conformation (absence of Mg-ATP) or TmrA^EQB populated in the outward-facing (OF) conformation, which was trapped in the OF conformation by Mg-ATP (1 mM) after 5 min incubation at 45°C. The difference in fluorescence polarization was normalized to unbound (0%) and 100% bound CP^F. Data were fitted by a one-site binding model. Fluorescence anisotropy was recorded at λex/em = 485/520 nm. […] TmrA^EQB (2 µM) were incubated in the absence and presence of CP^Fs (4 µM each), ATP (1 mM, traced with [α^32P]-ATP), and MgCl2 (5 mM) for 5 min at 4°C or 45°C. Cold ATP (10 mM) was added, and free nucleotides were removed by rapid gel filtration. Occluded nucleotides were analyzed by thin layer chromatography and autoradiography. Representative radiograms for independent triplicates are shown. […] Figure 5—figure supplement 1—source data 1.
We also examined the impact of CP^Fs on the IF-to-OF transition of wild-type TmrAB induced by ATP binding through nucleotide occlusion (stable trapping) as the readout. We induced the IF-to-OF switch with radiotraced [α^32P]-ATP for 5 min at 45°C in the presence and absence of CPs and removed unbound nucleotides by rapid gel filtration. Subsequently, the occluded nucleotides were identified and quantified by thin layer chromatography and autoradiography (Figure 5C, D).
Detergent-solubilized TmrAB (2 µM) were incubated with ATP (1 mM) traced with [α^32P]-ATP (Hartmann Analytic), MgCl2 (5 mM), CP^Fs (4 µM), or orthovanadate (1 mM) for 5 min at 45°C. […]

[3] = time 5 min (after first 5 min at 45°C)
[4] = time 65 min (after 60 min at 4°C)
[5] = time 70 min (after second 5 min at 45°C)
[6] = time 130 min (after second 60 min at 4°C)

| SMILES | Peptide transport in two successive IF-to-OF cycles [1] | Transported C4^ATTO655, Peptides/liposome ([1]; CP^F 1 µM, 5 min 45°C) | Peptides/liposome, two consecutive transport cycles ([1]; time 0 min) | Peptides/liposome, two consecutive transport cycles [1, 3] | Peptides/liposome, two consecutive transport cycles [1, 4] | Peptides/liposome, two consecutive transport cycles [1, 5] | Peptides/liposome, two consecutive transport cycles [1, 6] | Effect on ATP occlusion, TmrA^EQB [2] | also measured |
| --- | --- | --- | --- | --- | --- | --- | --- | --- | --- |
| CC[C@H](C)[C@@H]1NC(=O)[C@H]([C@@H](C)O)NC(=O)[C@H](CC(C)C)NC(=O)[C@H](Cc2c[nH]c3ccccc23)NC(=O)[C@H](Cc2ccccc2)NC(=O)[C@H](CC(N)=O)NC(=O)[C@H](CCC(=O)O)NC(=O)[C@H](CC(C)C)NC(=O)[C@H](CS)NC(=O)[C@H](Cc2c[nH]cn2)NC(=O)[C@H](CO)NC(=O)[C@@H](Cc2ccc(O)cc2)NC(=O)CSC[C@@H](C(=O)NCC(=O)N[C@@H](CO)C(=O)NCCC(=O)NCCC(=O)N[C@@H](CCCNC(=N)N)C(=O)N[C@@H](CCCCNC(=O)c2ccc3c(c2)C(=O)OC32c3ccc(O)cc3Oc3cc(O)ccc32)C(N)=O)NC(=O)[C@H](CC(C)C)NC1=O [CP6] ({CH2CO}-[dY]SHCLENFWLTILCGS[βAla][βAla]RK(5FAM)-NH2; thioether N-14) | peptide translocation was completely abrogated | 4.74 Peptides/liposome | 0.00 Peptides/liposome | 0.17 Peptides/liposome | 0.01 Peptides/liposome | 1.93 Peptides/liposome | 1.54 Peptides/liposome | inhibited ATP occlusion | Effect on C4^ATTO655 peptide translocation ([1]; CP^F 1 µM, 5 min 45°C): completely prevented C4^ATTO655 peptide translocation |
| CC(C)[C@@H]1NC(=O)[C@H](Cc2ccccc2)NC(=O)[C@@H]2CCCN2C(=O)[C@H](CC(N)=O)NC(=O)[C@H](Cc2c[nH]c3ccccc23)NC(=O)[C@H](C(C)C)NC(=O)[C@H](Cc2ccc(O)cc2)NC(=O)[C@H](Cc2ccccc2)NC(=O)[C@@H](Cc2ccc(O)cc2)NC(=O)CSC[C@@H](C(=O)NCC(=O)N[C@@H](CO)C(=O)NCCC(=O)NCCC(=O)N[C@@H](CCCNC(=N)N)C(=O)N[C@@H](CCCCNC(=O)c2ccc3c(c2)C(=O)OC32c3ccc(O)cc3Oc3cc(O)ccc32)C(N)=O)NC(=O)[C@H](CCCCN)NC(=O)[C@H](Cc2ccccc2)NC1=O [CP14] ({CH2CO}-[dY]FYVWNPFVFKCGS[βAla][βAla]RK(5FAM)-NH2; thioether N-12; C-terminus assumed) | peptide transport was detected in both IF-to-OF switches | 38.81 Peptides/liposome | 0.00 Peptides/liposome | 36.27 Peptides/liposome | 37.68 Peptides/liposome | 44.92 Peptides/liposome | 48.07 Peptides/liposome | ATP is occluded in the presence or absence | Peptides/liposome, time course ([1]; 1 min at 45°C, CP^F 1 µM): 0.03 Peptides/liposome; Mean fluorescence intensity * 10^3, time course ([1]; 1 min at 45°C, CP^F 1 µM, without CP 2.29): 0.00 * 10^3; Peptides/liposome, time course ([1]; 3 min at 45°C, CP^F 1 µM): 6.21 Peptides/liposome; Mean fluorescence intensity * 10^3, time course ([1]; 3 min at 45°C, CP^F 1 µM, without CP 10.49): 0.43 * 10^3; Peptides/liposome, time course ([1]; 5 min at 45°C, CP^F 1 µM): 14.91 Peptides/liposome; Mean fluorescence intensity * 10^3, time course ([1]; 5 min at 45°C, CP^F 1 µM, without CP 18.11): 1.02 * 10^3; Peptides/liposome, time course ([1]; 10 min at 45°C, CP^F 1 µM): 24.30 Peptides/liposome; Mean fluorescence intensity * 10^3, time course ([1]; 10 min at 45°C, CP^F 1 µM, without CP 30.27): 1.67 * 10^3; Peptides/liposome, time course ([1]; 20 min at 45°C, CP^F 1 µM): 38.29 Peptides/liposome; Mean fluorescence intensity * 10^3, time course ([1]; 20 min at 45°C, CP^F 1 µM, without CP 40.72): 2.63 * 10^3; Peptides/liposome, time course ([1]; 40 min at 45°C, CP^F 1 µM): 48.57 Peptides/liposome; Mean fluorescence intensity * 10^3, time course ([1]; 40 min at 45°C, CP^F 1 µM, without CP 51.44): 3.34 * 10^3; C4^ATTO655 peptides per liposome transported along a single IF-to-OF switch ([1]; CP^F 1 µM, 5 min 45°C, ~30 transport-competent TmrAB per liposome): ~ 30 peptides per liposome; Peptide transport rate compared to control without CP^Fs ([1]; period of 40 min at 45°C): drastically reduced the peptide transport rate; Turnover of wild-type TmrAB over long-term incubation ([1]; period of 40 min at 45°C): slow turnover |
